Measured values published in US7049321B2, “Methods and pharmaceutical compositions for treatment of central and peripheral nervous system disorders and compounds useful therefor” (Israel Institute for Biological Research, priority 2002, dated 2006).
Like-named read-outs stand apart in the source and are kept apart here.

Key:
[1] = system: cells transfected with M1 mAChR; test: Apoptosis (DAPI, TUNEL, FACS) after starvation, Aβ or H2O2; type: cell-based, rat; settings: for Apoptosis after Aβ or H2O2 (DAPI): DAPI staining
[2] = system: cells transfected with M1 mAChR; test: as above; type: cell-based, rat; settings: for Apoptotic cell death induced by starvation: 24 hrs starvation; for H2O2-induced apoptosis: H2O2 25 and 50 μm; for Aβ-induced apoptosis: β-A25-35 or β-A1-42 (25 μM), M1 transfected cells; for Apoptotic population after β-amyloid (FACS): β-Amyloid 25–35 or 1–42
Protocol: Several experiments were performed in serum-free medium.
Cells were grown and treated on glass coverslips.
Apoptotic cells were identified as the pre-G1 phase.

[3] = system: tau protein; test: tau-1 immunoreactivity in primary cell cultures (western blot); type: cell-based, rat; settings: 1–100 μM, cortical and hippocampal cell cultures
Protocol: Primary cell cultures were grown as described in EXAMPLE 38. Cell supernatants were removed and the cells were washed once in medium prior to the addition of cold phosphate buffre saline ph=7.4 (PBS) solution containing 0.2 mM EDTA. Cells were scraped using a rubber policeman, transferred to Eppendorf tubes, and centrifuged at 4° C. Cell pellets were resuspended in lysis buffer (EDTA 5 mM, Tris 50 mM, Triton 1%, NaCl 150 mM) containing protease inhibitors (5 units/ml apronitin, […] and 0.1 mM PMSF, Sigma) and subjected to centrifugation at 4° C. Supernatants were transferred into Eppendorf tubes and kept at −20° C. till analyzed. The extent of tau-1 immunoreactivity (an antibody that recognizes a non-phosphorylated tau at Ser^199) was determined by western blots.

[4] = system: C57BL/10SnJ (B10) mice; test: Morris water maze in small hippocampus mice; type: in vivo; settings: for Training, escape latency: 0.5 and 1 mg/kg i.p. (rivastigmine, nicotine 1 mg/kg); for Training, path length: AF150(S) both doses, AF267B the higher dose; for Reversal test, escape latency / Training, swimming speed / Transfer test, spatial bias: mouse, in vivo
Protocol: C57BL/10SnJ (B10) mice were selected due to their small hippocampi and decreased number of hippocampal pyramidal neurons; the cell loss seemed to be associated with poor spatial learning.
Each group of mice was randomly divided into 7 treatment groups (n=12-14/group). […] All tested compounds and saline were administered once a day for 4 days before starting the behavioral testing, and then for the duration of the 5-day experiment, 30 minutes before testing.
Training: Each mouse was trained for four consecutive days, four trials (one block) per day, in which the platform position remained constant and was located in the center of the southeast quadrant of the pool. Within each block of four trials, each mouse started at each of the starting locations, but the sequence of locations was randomly selected. A trial consisted of placing a mouse by hand into the water facing the wall of the pool at one of four starting locations, north, south, east or west, around the pool's perimeter. Escape latency (the time to find the platform), path length (the distance traveled by the mouse) and speed (the swimming rate of the mouse) were recorded on each trial by the monitoring system.
For each mouse, the path length, escape latency, and swimming speed of the four trials on each of the 4 training days were grouped into blocks (one block for each day). […] Specific comparisons were performed, using the simple main effects contrasts acalysis, which is specifically suited for testing significant interactions.
Transfer test. During trial No. 17, on the fourth day, the platform was entirely removed from the pool (a probe trial). In this trial, the mouse was placed into the water for a limited period (30 s), and its spatial bias was measured by recording the relative distribution of escape latency and path length over the four quadrants of the pool.
Reversal test. During trials 18–21, on the fifth day, the platform position was changed to the northwest quadrant, opposite to the training quadrant. Thus, during reversal learning, the platform location was moved relative to the configuration of objects within the room, but the pool occupied the same place within the room throughout the entire experiment. Testing of the rats and measures taken were the same as in training.
For each mouse, the escape latency, path length and swimming speed of the reversal test (trials No. 18–21) were grouped into one block.

[5] = molecular target: T1, rat M1 mAChR (Rattus norvegicus, UniProt P08482); test: PI turnover, rat M1 mAChR; type: cell-based
T1 construct: expressed in transfected cells; host or cells: probably the rat pheochromocytoma cells transfected with M1 mAChR

[6] = Plasma levels of AF267B and AF292 in dogs after AF267B administration (toxicokinetic, LC-MS); type: in vivo, Beagle dogs; settings: for AUC(0-t) / Cmax / Tmax / half-life / AUC(0-inf) / MRT / MRT at 13 weeks: beagle, plasma, po
Source text: Internal Standard (AF261): 2-Methyl-8-methyl-1-thia-4,8-diaza-spiro[4.5]decan-3-one; MW 200. The analytical plasma samples originate from the in-life part of this study.

[7] = system: aged rats; test: Morris water maze in aged rats; type: in vivo, Sprague-Dawley rats; settings: for Reversal learning: AF267B 1 mg/kg, AF292 1 and 0.5 mg/kg, po
Source text: Old (22–24 months old) and young (three months old) Sprague-Dawley rats had been tested in the MWM.

[8] = molecular target: T2, M1 receptors (Rattus norvegicus, UniProt P08482); test: [3H]PZ competition binding to rat cortical membranes; settings: for Ki: rat cortex
T2 construct: from tissue; host or cells: rat cortical membranes
T2 sequence (P08482 1-460): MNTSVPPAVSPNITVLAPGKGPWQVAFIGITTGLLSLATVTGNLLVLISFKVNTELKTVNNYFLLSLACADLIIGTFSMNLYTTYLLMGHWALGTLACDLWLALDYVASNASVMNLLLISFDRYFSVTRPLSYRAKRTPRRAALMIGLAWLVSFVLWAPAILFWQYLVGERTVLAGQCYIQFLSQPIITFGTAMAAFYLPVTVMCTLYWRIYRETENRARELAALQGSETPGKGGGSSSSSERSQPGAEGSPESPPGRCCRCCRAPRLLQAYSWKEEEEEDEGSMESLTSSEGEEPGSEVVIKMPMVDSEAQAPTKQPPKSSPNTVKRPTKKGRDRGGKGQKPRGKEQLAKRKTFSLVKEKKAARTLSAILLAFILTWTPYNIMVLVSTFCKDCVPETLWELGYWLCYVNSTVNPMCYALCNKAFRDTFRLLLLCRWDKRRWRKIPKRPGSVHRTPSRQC
Source text: Pirenzepine (PZ), a muscarinic antagonist, binds preferentially to M1 receptors while OXO-M binds to all mAChR subtypes non-selectively; the ratio between the Ki values for PZ versus that of OXO-M may be indicative of the selectivity of the tested compound. The smaller the ratio, the more M1 selective is the tested compound. […] The OXO-M/PZ ratio is ˜0.36 showing a moderately high selectivity for the M1 receptor.

[9] = Protein binding, PBS; type: in vitro ADME; settings: 10 μM
Protocol: Protein binding studies were carried out in human plasma, α1-glycoprotein, human serum albumin (HSA), and Dulbecco's Phosphate Buffered Saline (PBS). AF292 was added to a final concentration of 10 μM. […] (μM) and in human […] (AGP), (see Table 1).

[10] = both sexes, dog, 6 mg/kg, read-out: plasma half life
[11] = female, dog, 6 mg/kg, F (1x), AF267B 1.5, 3, 6 mg/kg p.o. single
[12] = female, dog, 6 mg/kg, F(13w), AF267B 1.5, 3, 6 mg/kg p.o.
[13] = male, dog, 6 mg/kg, M (1x), AF267B 1.5, 3, 6 mg/kg p.o. single
[14] = male, dog, 6 mg/kg, M(13w), AF267B 1.5, 3, 6 mg/kg p.o.
[15] = male, dog, read-out: Elimination half life, Mean T1/2

Row | SMILES | Apoptosis after Aβ or H2O2 (DAPI) [1] | Apoptotic death during starvation (FACS) [2] | Apoptotic cell death induced by starvation [2] | H2O2-induced apoptosis [2] | Aβ-induced apoptosis [2] | Apoptotic population after β-amyloid (FACS) [2] | tau-1 immunoreactivity [3] | Training, escape latency [4] | Training, path length [4] | Reversal test, escape latency [4] | Training, swimming speed [4] | Transfer test, spatial bias [4] | PI turnover vs. CCh, rat M1 mAChR [5] | AUC(0-t) ([6]; both sexes, dog) | Cmax ([6]; both sexes, dog) | Tmax ([6]; both sexes, dog) | half-life [6, 10] | AUC(0-inf) [6, 11] | AUC(0-inf) [6, 12] | MRT ([6]; female, dog, F (1x)) | also measured
1 | CC1=NCC2(CCN(C)CC2)S1 [AF150(S), 2,8-Dimethyl-1-thia-3,8-diaza-spiro[4.5]dec-2-ene] | protect these cells from apoptosis | protected cells from apoptotic death | significantly protect | prevented H2O2-induced apoptosis | prevented | reduced the apoptotic population significantly | effective in elevating tau immunoreactivity | positively affected | positively affected | improved the escape latency | enhancing effect of AF150(S) was equal in both doses | complete spatial bias |  |  |  |  |  |  |  |  | Apoptosis, TUNEL ([1]; 100 μM, 25 μM β-amyloid 25–35): able to block the apoptosis
2 | CC[C@@H]1SC2(CCN(C)CC2)NC1=O [AF267B, (S)-2-ethyl-8-methyl-1-thia-4,8-diaza-spiro[4.5]decan-3-one] | protect these cells from apoptosis | protected cells from apoptotic death | significantly protect | prevented H2O2-induced apoptosis | prevented | reduced the apoptotic population significantly | effective in elevating tau immunoreactivity | positively affected | positively affected | improved the escape latency | enhanced the swimming speed in a dose dependent manner | complete spatial bias | PI, rat M1 mAChR: 75% | 712 to 3950 ng·h/mL | 162 to 1350 ng/mL | 1.5 to 3 h | 1 to 2 h | 985 to 3180 ng·h/mL | 1030 to 4160 ng·h/mL | 4.7 to 5.3 h | MRT at 13 weeks ([6]; female, dog, F(13w)): 3.6 to 5.2 h; half-life ([6]; female, dog, read-out: Elimination half life, Mean T1/2): 3.3 h; AUC(0-inf) [6, 13]: 800 to 3690 ng·h/mL; AUC(0-inf) [6, 14]: 1040 to 4470 ng·h/mL; MRT ([6]; male, dog, M (1x)): 3.8 to 5 h; MRT at 13 weeks ([6]; male, dog, M(13w)): 3 to 4.2 h; half-life [6, 15]: 2.1 h; Learning ([7]; 1 mg/kg): tendency for improvement; Reversal learning [7]: improved significantly the reversal learning; Swimming ability ([7]; rat, in vivo): no significant effect on the swimming ability; Ki [8]: 3.74 ± 0.59 µM; Protein Binding [9]: PBS = 0%
3 | CC[C@@H]1SC2(CCNCC2)NC1=O [AF292, (S)-2-Ethyl-1-thia-4,8-diaza-spiro[4.5]decan-3-one] |  |  |  |  |  |  |  |  |  |  |  |  | PI, rat M1 mAChR; 50% | 616 to 2450 ng·h/mL | 136 to 555 ng/mL | 3 h | 9 to 20 h | 3900 to 4840 ng·h/mL | 1870 to 12700 ng·h/mL | 8.7 to 18.7 h | Elimination half life, Mean T1/2 ([6]; F): Mean T1/2 (F) = 10.6 +/− 7.6 h; Cmax vs. the Cmax of AF267B ([6]; dog, in vivo): 50–90%; MRT at 13 weeks ([6]; female, dog, F(13w)): 5.1 to 33.7 h; half-life ([6]; female, dog, females, read-out: T1/2 (converted)): 10.6 h; AUC(0-inf) [6, 13]: 1140 to 10900 ng·h/mL; AUC(0-inf) [6, 14]: 1610 to 4170 ng·h/mL; MRT ([6]; male, dog, M (1x)): 5 to 27.3 h; MRT at 13 weeks ([6]; male, dog, M(13w)): 5 to 7.8 h; half-life [6, 15]: 6.3 h; Reversal learning [7]: did not reach significance; Probe trial, memory ([7]; both doses (1 and 0.5 mg/kg, po)): tendency for partial spatial bias; OXO-M/PZ ratio [8]: ~0.36; Ki [8]: 1.64 µM; Protein Binding [9]: 0% and PBS = 0%
